Source: US20060141067A1, “Anti-allergic herbal formulation” (priority 2004, published 2006)
Marks after values point to notes of the source that are not given here.

Tested on: mast cell
Experiment: Mast cell degranulation in rats (histamine released)
Assay type: in vivo
Conditions: 25 mg/kg p.o., mean ± S.E.M.
Procedure: Mast cell degranulation: Tyrode solution (10 ml) containing 5 units/ml of heparin was injected in the peritoneal cavity of sensitized male rats lightly anaesthetized with ether. After a gentle abdominal massage for about 30 to 45 sec, the mast cell rich peritoneal fluid was collected over ice and centrifuged at 2000 rpm for 5 min. The cells were washed thrice with chilled Tyrode and resuspended in about 1 ml of Tyrode solution. The peritoneal fluid was obtained from 10 rats and the final volume of the fluid was pooled and used for the studies (Nair A M et al, 1997).

CN(C)CCC(c1ccccc1)c1ccccn1.O=C(O)/C=C\C(=O)O (stereo not shown) [Avil]
Histamine released: 0.345 ± 0.04^b μg/ml
